In brackets after ≈: the same amount, converted by molar mass. Read-outs that look alike come from different tables or passages of the source.
Experiments:
Type in all cases: cell-based
[1] = system: Enterobacter aerogenes UR76-3; assay: In vitro MIC, agar dilution, Enterobacter aerogenes UR76-3; details: Klebsiella aerogenes, UR763; Enterobacter aerogenes UR76-3; agar dilution, 35° C., 18 hours, nutrient agar; read-out: Minimal Inhibitory Concentration
Experimental: (§1) The in vitro activity of representative compounds of the present invention are given in the following Table I in terms of minimal inhibitory concentration. The test used was the standard agar dilution test using a Steers multiple inocula replicator and incubating at 35° C. for 18 hours in conventional nutrient agar.

[2] = system: Klebsiella pneumoniae MA75-1; assay: In vitro MIC, agar dilution, Klebsiella pneumoniae MA75-1; details: MA751; Klebsiella pneumoniae MA75-1; agar dilution, 35° C., 18 hours, nutrient agar; read-out: Minimal Inhibitory Concentration
Experimental: as §1

Escherichia coli W75-1 = assay: In vitro MIC, agar dilution, Escherichia coli W75-1; details: W751, 35° C., 18 hours, nutrient agar, read-out: Minimal Inhibitory Concentration
Experimental: as §1

Proteus rettgeri N76-1 = assay: In vitro MIC, agar dilution, Proteus rettgeri N76-1; details: Providencia rettgeri, N761; Proteus rettgeri N76-1; agar dilution, 35° C., 18 hours, nutrient agar; read-out: Minimal Inhibitory Concentration
Experimental: as §1

[3] = system: Staphylococcus aureus Q74-6; assay: In vitro MIC, agar dilution, Staphylococcus aureus Q74-6; details: Q746; Staphylococcus aureus Q74-6; agar dilution, 35° C., 18 hours, nutrient agar; read-out: Minimal Inhibitory Concentration
Experimental: as §1

[4] = system: Escherichia coli ESS22-31; assay: In vitro MIC, agar dilution, Escherichia coli ESS22-31; details: ESS2231; Escherichia coli ESS22-31; agar dilution, 35° C., 18 hours, nutrient agar; read-out: Minimal Inhibitory Concentration
Experimental: as §1

Proteus vulgaris N74-1 = assay: In vitro MIC, agar dilution, Proteus vulgaris N74-1; details: N741, 35° C., 18 hours, nutrient agar, read-out: Minimal Inhibitory Concentration
Experimental: as §1

[5] = system: Klebsiella pneumoniae W75-2; assay: In vitro MIC, agar dilution, Klebsiella pneumoniae W75-2; details: W752; Klebsiella pneumoniae W75-2; agar dilution, 35° C., 18 hours, nutrient agar; read-out: Minimal Inhibitory Concentration
Experimental: as §1

[6] = system: Klebsiella pneumoniae UR76-1; assay: In vitro MIC, agar dilution, Klebsiella pneumoniae UR76-1; details: UR761; Klebsiella pneumoniae UR76-1; agar dilution, 35° C., 18 hours, nutrient agar; read-out: Minimal Inhibitory Concentration
Experimental: as §1

Escherichia coli 311 = assay: In vitro MIC, agar dilution, Escherichia coli 311; details: 35° C., 18 hours, nutrient agar, read-out: Minimal Inhibitory Concentration
Experimental: as §1

[7] = system: Klebsiella pneumoniae W75-4; assay: In vitro MIC, agar dilution, Klebsiella pneumoniae W75-4; details: W754; Klebsiella pneumoniae W75-4; agar dilution, 35° C., 18 hours, nutrient agar; read-out: Minimal Inhibitory Concentration
Experimental: as §1

[8] = system: Pseudomonas aeruginosa UCS 76-13; assay: In vitro MIC, agar dilution, Pseudomonas aeruginosa UCS 76-13; details: UCS7613; Pseudomonas aeruginosa UCS 76-13; agar dilution, 35° C., 18 hours, nutrient agar; read-out: Minimal Inhibitory Concentration
Experimental: as §1

Klebsiella pneumoniae AD = assay: In vitro MIC, agar dilution, Klebsiella pneumoniae AD; details: Klebsiella pneumoniae AD; agar dilution, 35° C., 18 hours, nutrient agar; read-out: Minimal Inhibitory Concentration
Experimental: as §1

Serratia K101 = assay: In vitro MIC, agar dilution, Serratia K101; details: Serratia K101; agar dilution, 35° C., 18 hours, nutrient agar; read-out: Minimal Inhibitory Concentration
Experimental: as §1

[9] = system: Enterobacter cloacae OSU75-2; assay: In vitro MIC, agar dilution, Enterobacter cloacae OSU75-2; details: OSU752; Enterobacter cloacae OSU75-2; agar dilution, 35° C., 18 hours, nutrient agar; read-out: Minimal Inhibitory Concentration
Experimental: as §1

Serratia marcens K77-1 = assay: In vitro MIC, agar dilution, Serratia marcens K77-1; details: K771; Serratia marcens K77-1; agar dilution, 35° C., 18 hours, nutrient agar; read-out: Minimal Inhibitory Concentration
Experimental: as §1

[10] = system: Pseudomonas aeruginosa G236; assay: In vitro MIC, agar dilution, Pseudomonas aeruginosa G236; details: Pseudomonas aeruginosa G236; agar dilution, 35° C., 18 hours, nutrient agar; read-out: Minimal Inhibitory Concentration
Experimental: as §1

Enterococcus SM77-15 = assay: In vitro MIC, agar dilution, Enterococcus SM77-15; details: SM7715; Enterococcus SM77-15; agar dilution, 35° C., 18 hours, nutrient agar; read-out: Minimal Inhibitory Concentration
Experimental: as §1

[11] = system: Pseudomonas aeruginosa 12-4-4; assay: In vitro MIC, agar dilution, Pseudomonas aeruginosa 12-4-4; details: 1244; Pseudomonas aeruginosa 12-4-4; agar dilution, 35° C., 18 hours, nutrient agar; read-out: Minimal Inhibitory Concentration
Experimental: as §1

[12] = system: Pseudomonas aeruginosa PD05141; assay: In vitro MIC, agar dilution, Pseudomonas aeruginosa PD05141; details: Pseudomonas aeruginosa PD05141; agar dilution, 35° C., 18 hours, nutrient agar; read-out: Minimal Inhibitory Concentration
Experimental: as §1

[13] = system: Enterobacter cloacae MA75-1; assay: In vitro MIC, agar dilution, Enterobacter cloacae MA75-1; details: read-out: Minimal Inhibitory Concentration
Experimental: as §1

Proteus morganii K72 = assay: In vitro MIC, agar dilution, Proteus morganii K72; details: Morganella morganii; Proteus morganii K72; agar dilution, 35° C., 18 hours, nutrient agar; read-out: Minimal Inhibitory Concentration
Experimental: as §1

[14] = system: Staphylococcus aureus Q74-1; assay: In vitro MIC, agar dilution, Staphylococcus aureus Q74-1; details: Q741; Staphylococcus aureus Q74-1; agar dilution, 35° C., 18 hours, nutrient agar; read-out: Minimal Inhibitory Concentration
Experimental: as §1

Escherichia coli OSU75-1 = assay: In vitro MIC, agar dilution, Escherichia coli OSU75-1; details: OSU751, 35° C., 18 hours, nutrient agar, read-out: Minimal Inhibitory Concentration
Experimental: as §1

Serratia marcens QHC77-2 = assay: In vitro MIC, agar dilution, Serratia marcens QHC77-2; details: QHC772; Serratia marcens QHC77-2; agar dilution, 35° C., 18 hours, nutrient agar; read-out: Minimal Inhibitory Concentration
Experimental: as §1

SMILES: CCN1CCN(C(=O)NC(C(=O)NC2C(=O)N3C(C(=O)O)=C(CSc4nnc(-n5nc(C)cc5C)n4N)CS[C@H]23)c2ccc(O)cc2)C(=O)C1=O (some centres unmarked) [Compound VIII, 7-[2-(4-Ethyl-2,3-dioxo-1-piperazinecarboxamido)-2-(p-hydroxyphenyl)acetamido]-3-[4-amino-5-(3,5-dimethyl-1-pyrazolyl)-1,2,4-triazol-3-ylthiomethyl]-3-cephem-4-carboxylic acid]
- MIC [1]: 1 mg/L (≈ 1.35 µM)
- MIC [2]: 2 mg/L (≈ 2.7 µM)
- MIC (Escherichia coli W75-1): 4 mg/L (≈ 5.41 µM)
- MIC (Proteus rettgeri N76-1): 16 mg/L (≈ 21.6 µM)
- MIC [3]: 8 mg/L (≈ 10.8 µM)
- MIC [4]: ≤ 0.12 mg/L
- MIC (Proteus vulgaris N74-1): 128 mg/L (≈ 173 µM)
- MIC [5]: 4 mg/L (≈ 5.41 µM)
- MIC [6]: 32 mg/L (≈ 43.3 µM)
- MIC (Escherichia coli 311): 2 mg/L (≈ 2.7 µM)
- MIC [7]: 32 mg/L (≈ 43.3 µM)
- MIC [8]: > 128 mg/L
- MIC (Klebsiella pneumoniae AD): 2 mg/L (≈ 2.7 µM)
- MIC (Serratia K101): 64 mg/L (≈ 86.5 µM)
- MIC [9]: 128 mg/L (≈ 173 µM)
- MIC (Serratia marcens K77-1): 128 mg/L (≈ 173 µM)
- MIC [10]: 128 mg/L (≈ 173 µM)
- MIC (Enterococcus SM77-15): 128 mg/L (≈ 173 µM)
- MIC [11]: 32 mg/L (≈ 43.3 µM)
- MIC [12]: > 128 mg/L
- MIC ([13]; MA751, Enterobacter cloacae MA75-1, agar dilution, 35° C., 18 hours, nutrient agar): > 128 mg/L
- MIC (Proteus morganii K72): 32 mg/L (≈ 43.3 µM)
- MIC [14]: 4 mg/L (≈ 5.41 µM)
- MIC (Escherichia coli OSU75-1): 4 mg/L (≈ 5.41 µM)
- MIC (Serratia marcens QHC77-2): > 128 mg/L

SMILES: CCN1CCN(C(=O)NC(C(=O)NC2C(=O)N3C(C(=O)O)=C(CSc4n[nH]c(-n5cccn5)n4)CS[C@H]23)c2ccc(O)cc2)C(=O)C1=O (some centres unmarked) [Compound VI, 7-[2-(4-Ethyl-2,3-dioxo-1-piperazinecarboxamido)-2-(p-hydroxyphenyl)acetamido]-3-[5-(1-pyrazolyl)-1,2,4-triazol-3-ylthiomethyl]-3-cephem-4-carboxylic acid]
- MIC [1]: 0.5 mg/L (≈ 0.718 µM)
- MIC [2]: 2 mg/L (≈ 2.87 µM)
- MIC (Escherichia coli W75-1): 2 mg/L (≈ 2.87 µM)
- MIC (Proteus rettgeri N76-1): 16 mg/L (≈ 23 µM)
- MIC [3]: 8 mg/L (≈ 11.5 µM)
- MIC [4]: ≤ 0.12 mg/L
- MIC (Proteus vulgaris N74-1): 16 mg/L (≈ 23 µM)
- MIC [5]: 4 mg/L (≈ 5.74 µM)
- MIC [6]: 16 mg/L (≈ 23 µM)
- MIC (Escherichia coli 311): 1 mg/L (≈ 1.44 µM)
- MIC [7]: 32 mg/L (≈ 45.9 µM)
- MIC [8]: 64 mg/L (≈ 91.9 µM)
- MIC (Klebsiella pneumoniae AD): 0.5 mg/L (≈ 0.718 µM)
- MIC (Serratia K101): 128 mg/L (≈ 184 µM)
- MIC [9]: 64 mg/L (≈ 91.9 µM)
- MIC (Serratia marcens K77-1): > 128 mg/L
- MIC [10]: 32 mg/L (≈ 45.9 µM)
- MIC (Enterococcus SM77-15): > 128 mg/L
- MIC [11]: 16 mg/L (≈ 23 µM)
- MIC [12]: 64 mg/L (≈ 91.9 µM)
- MIC ([13]; Enterobacter cloacae, MA751, 18 h): > 128 mg/L
- MIC (Proteus morganii K72): 32 mg/L (≈ 45.9 µM)
- MIC [14]: 4 mg/L (≈ 5.74 µM)
- MIC (Escherichia coli OSU75-1): 2 mg/L (≈ 2.87 µM)
- MIC (Serratia marcens QHC77-2): > 128 mg/L
